Assay results: US20190112272A1, “SYNTHETIC RETINOIDS FOR USE IN RAR MEDIATED CONDITIONS” (High Force Research Limited, priority 2016, published 2019)

How the values were obtained:
[1] = test system: retinoic acid response element (RARE) driven LacZ reporter in Sil-15 reporter cells (F9-RARE-lacZ cells); assay: RARE-driven LacZ reporter gene assay (genomic response, Sil-15 reporter cells, X-Gal assay); format: cell-based; details: for activation of transcription via a RARE (genomic response): Sil-15 reporter cells, result in words
Source text: (§1) The action of retinoic acid in the brain, the relative importance of genomic versus non-genomic activity of retinoic acid was investigated by determining whether some RAR ligands preferentially activated one pathway. Retinoic acid (FIG. 1) was used as a compound known to induce both genomic and non-genomic pathways of retinoic acid signalling. We measured its relative activity as an inducer of gene transcription using a construct in which the promoter element to which the retinoic acid receptor binds (retinoic acid response element, RARE) drives a LacZ reporter (genomic response). This was compared to a cell based assay to measure induction of ERK 1/2 phosphorylation (non-genomic response).
Sil-15 reporter cells (also called F9-RARE-lacZ cells) were used in the X-Gal Assay. This cell line was derived from a stable transfection of F9 teratocarcinoma cells with a plasmid containing the LacZ gene under the control of a promoter linked to a retinoic acid response element (RARE). These cells were used to visually detect and semi-quantify the transcriptional activity of retinoic acid and other retinoids by monitoring β-galactosidase activity produced by the reporter cells in response to the retinoic acid/retinoids in the surrounding medium.
Sil-15 cells were plated in a 0.1% gelatin-coated 96-well plate and grown to about 85-90% confluence in Dulbecco's modified Eagle's medium (DMEM) containing 10% foetal calf serum and 0.8 mg/ml G418 sulfate for selection.
Serial dilutions of retinoids were prepared from the stock solutions under a red/orange light. A standard curve of RA was included in the experiment as a positive control. The RA/chemicals dilutions were added above the seeded Sil-15 cells in the 96-well plate and then the plate was wrapped with aluminium foil and incubated overnight in a humid atmosphere containing 5% CO2 at 37° C. All the concentrations for the RA and the two chemicals were tested in triplicates.
The next day, Sil-15 cells were washed twice with 1× PBS, fixed with 100 μl per well of 1% glutaraldehyde fixation solution for 15 minutes, washed again two times with 1× PBS and finally β-galactosidase activity was visualized by adding 100 μl of a freshly prepared X-Gal developing solution (5-bromo-4-chloro-3-indolyl-β-d-galactopyranoside) to each well. The plate was incubated overnight at 37° C. in 5% CO2. The plate was read on an Emax microplate reader at 650 nm.

[2] = test system: ERK 1/2 phosphorylation; assay: Induction of ERK 1/2 phosphorylation (non-genomic response); format: cell-based; details: for kinase activity (ERK 1/2 phosphorylation, non-genomic response): result in words
Experimental: (§2) (b) The influence of a low concentration of retinoids on number of neurites from SH-SS5Y cells was determined.
as §1

[3] = test system: SH-SY5Y cells; assay: Neurite outgrowth screening assay in SH-SY5Y cells; format: cell-based; details: for effect on number of neurites compared to control: 10 nM retinoid, SH-SY5Y cells
Experimental: as §2

[4] = target: T1, Cellular Retinoic Acid Binding Protein II (CRABPII) (Homo sapiens, UniProt P29373); assay: Fluorometric competitive binding titration of DC271 in CRABPII
T1 sequence (P29373 1-138): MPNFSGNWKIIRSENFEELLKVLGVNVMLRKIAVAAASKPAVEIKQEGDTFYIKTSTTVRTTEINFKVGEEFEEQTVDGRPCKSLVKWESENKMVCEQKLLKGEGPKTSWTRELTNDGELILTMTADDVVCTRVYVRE
Source text: A number of highly fluorescent analogues of retinoic acid (ATRA) have been synthesised at Durham University for use in a variety of imaging and biophysical studies. The fluorescence emission of these fluorescent retinoids, including DC271, is highly solvatochromatic and the intensity of this emission is strongly dependent on environment. Therefore, in a nonpolar solvent, the emission is blue shifted (425-500 nm) and intense, while in a polar solvent the emission is red shifted (500-600 nm) and weak (severely quenched in water). […] When EC23® is titrated against CRABPII-DC271 complex the reduction in fluorescence emission intensity can be used to produce a competition binding curve allowing the estimation of the Ki (inhibition constant) of the competition of EC23® for DC271 bound to CRABPII. […] For the competition with EC23® a solution of [DC271] =49.8 nM and [CRABPII]=75 nM was prepared in PBS buffer (20 mM K2HPO4, 100mM KCl, pH 7.4 buffer) and the fluorescence intensity was measured at 450 nm with excitation at 380 nm. […] The emission intensity of DC271 was plotted against Log[EC23], and a one site competitive binding model was fit to the resultant data (FIG. 5). This provided an estimation of the Log Ki of the competitive binding reaction (Table 1).

[5] = test system: SH-SY5Y cells; assay: Cell number / cell survival of SH-SY5Y cells; format: cell-based; details: 10 nM, compared to same concentration of retinoic acid
[6] = Photostability; format: physicochemical
[7] = Induction of own catabolism in vivo; details: unlike retinoic acid

Structure (SMILES): CC1=C(/C=C/C(C)=C/C=C/C(C)=C/C(=O)O)C(C)(C)CCC1 [ATRA, all-trans-retinoic acid]
- EC50 ([1]; RARE-LacZ reporter, 95% confidence interval 90.7 pM to 391.4 pM, read-out: mean EC50, genomic activation): 0.188 nM
- activation of transcription via a RARE (genomic response) [1]: induces gene transcription of a RAR driven reporter gene
- EC50 ([2]; 95% confidence interval 32.8 nM to 138.8 nM, read-out: mean EC50, ERK 1/2 kinase phosphorylation): 67.5 nM
- effect on number of neurites compared to control [3]: no significant effect
- neurite outgrowth ([3]; SH-SY5Y cell line, preliminary results, result in words): promotes neurite outgrowth

Structure (SMILES): COCCOCOc1cc2ccc(-c3ccc(C(=O)O)cc3)cc2cc1C12CC3CC(CC(C3)C1)C2 [CD2665]
- activation of transcription via a RARE (genomic response) [1]: shows no sign of activity to regulate gene expression via a RARE
- kinase activity (ERK 1/2 phosphorylation, non-genomic response) [2]: has significant kinase activity

Structure (SMILES): CC(C)N1CCC(C)(C)c2cc(C#Cc3ccc(C(=O)O)cc3)ccc21 [DC271]
- Kd ([4]; direct binding of the fluorescent retinoid, read-out: dissociation constant against CRABPII, Kd): 49.1 ± 2.6 nM

Structure (SMILES): CC1(C)CCC(C)(C)c2cc(C#Cc3ccc(C(=O)O)cc3)ccc21 [EC23®, 4-(5,5,8,8-tetramethyl-5,6,7,8-tetrahydro-naphthalen-2-ylethynyl) benzoic acid]
- fold greater activity than retinoic acid (ATRA) in transactivation of a RAR driven reporter gene ([1]; relative to retinoic acid (ATRA)): up to 500 fold
- capacity to induce ERK phosphorylation (western blotting of phosphorylated ERK) ([2]; 10 μM, after 20 minutes, versus same concentration of retinoic acid): much greater in its capacity to induce ERK phosphorylation than the same concentration of retinoic acid
- effect on number of neurites compared to control [3]: strong and significant effect
- number of SH-SY5Y cells [5]: greatly enhances the number of SH-SY5Y cells
- Ki ([4]; competition with DC271 49.8 nM, CRABPII 75 nM, PBS pH 7.4, one site model): 3.16 nM
- photostability [6]: photostable
- induction of its own catabolism in vivo [7]: does not induce its own catabolism in vivo

Structure (SMILES): C/C(=C\c1ccc(C(=O)O)cc1)c1ccc2c(c1)C(C)(C)CCC2(C)C [TTNPB]
- activation of transcription via a RARE (genomic response) [1]: can potently activate transcription via a RARE
- kinase activity (ERK 1/2 phosphorylation, non-genomic response) [2]: does not activate kinase activity
